Assay results as given in the supplement of paper PMC10307832.

Key:
Experiment in all cases: relative viability (nuclei count vs DMSO), 5 days (fraction); higher = more cells survive
Crenolanib + Linsitinib = compound: CC1(COc2ccc3c(c2)ncn3-c2ccc3cccc(N4CCC(N)CC4)c3n2)COC1 [Crenolanib] + C[C@]1(O)C[C@@H](c2nc(-c3ccc4ccc(-c5ccccc5)nc4c3)c3c(N)nccn32)C1 [Linsitinib] (partner 1 µM)
How it was run: (§1)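 Lung cancer cell lines were seeded in 1536-well plates and dosed by pin tool the next day, with either a single drug or a fixed anchor-drug dose combined with five library-drug doses (not always all listed) spaced in √10 steps. Five days later, one step fixed the cells and stained their nuclei (final 0.05% Triton X-100, 1% formaldehyde, 1 ug/ml Hoechst), and nuclei were counted on 4× images. Relative viability is the nuclei count in treated wells divided by the count in vehicle wells, and each value is the median of duplicate plates.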

Crenolanib + Palbociclib = compound: CC1(COc2ccc3c(c2)ncn3-c2ccc3cccc(N4CCC(N)CC4)c3n2)COC1 [Crenolanib] + CC(=O)c1c(C)c2cnc(Nc3ccc(N4CCNCC4)cn3)nc2n(C2CCCC2)c1=O [Palbociclib] (partner 0.5 µM)
How it was run: as §1

Crenolanib + Navitoclax = compound: CC1(COc2ccc3c(c2)ncn3-c2ccc3cccc(N4CCC(N)CC4)c3n2)COC1 [Crenolanib] + CC1(C)CCC(c2ccc(Cl)cc2)=C(CN2CCN(c3ccc(C(=O)NS(=O)(=O)c4ccc(N[C@H](CCN5CCOCC5)CSc5ccccc5)c(S(=O)(=O)C(F)(F)F)c4)cc3)CC2)C1 [Navitoclax] (partner 0.5 µM)
How it was run: as §1

Crenolanib + Trametinib = compound: CC1(COc2ccc3c(c2)ncn3-c2ccc3cccc(N4CCC(N)CC4)c3n2)COC1 [Crenolanib] + CC(=O)Nc1cccc(-n2c(=O)n(C3CC3)c(=O)c3c(Nc4ccc(I)cc4F)n(C)c(=O)c(C)c32)c1 [Trametinib] (partner 0.02 µM)
How it was run: as §1

Row | Cell Line | relative viability (Crenolanib + Linsitinib; first compound 0.01 µM) | relative viability (Crenolanib + Linsitinib; first compound 0.03162 µM) | relative viability (Crenolanib + Linsitinib; first compound 0.1 µM) | relative viability (Crenolanib + Linsitinib; first compound 0.3162 µM) | relative viability (Crenolanib + Linsitinib; first compound 1 µM) | relative viability (Crenolanib + Palbociclib; first compound 0.01 µM) | relative viability (Crenolanib + Palbociclib; first compound 0.03162 µM) | relative viability (Crenolanib + Palbociclib; first compound 0.1 µM) | relative viability (Crenolanib + Palbociclib; first compound 0.3162 µM) | relative viability (Crenolanib + Palbociclib; first compound 1 µM) | relative viability (Crenolanib + Navitoclax; first compound 0.01 µM) | relative viability (Crenolanib + Navitoclax; first compound 0.03162 µM) | relative viability (Crenolanib + Navitoclax; first compound 0.1 µM) | relative viability (Crenolanib + Navitoclax; first compound 0.3162 µM) | relative viability (Crenolanib + Navitoclax; first compound 1 µM) | relative viability (Crenolanib + Trametinib; first compound 0.01 µM) | relative viability (Crenolanib + Trametinib; first compound 0.03162 µM) | relative viability (Crenolanib + Trametinib; first compound 0.1 µM) | relative viability (Crenolanib + Trametinib; first compound 0.3162 µM) | relative viability (Crenolanib + Trametinib; first compound 1 µM)
1 | 201T | 1.05 | 1.04 | 1.01 | 1.04 | 1.11 | 0.363 | 0.349 | 0.341 | 0.37 | 0.337 | 1.19 | 1.21 | 1.16 | 1.16 | 1.24 | 0.703 | 0.703 | 0.688 | 0.722 | 0.745
2 | A549 | 0.674 | 0.598 | 0.529 | 0.69 | 0.533 | – | – | – | – | – | 1.2 | 1.13 | 1.18 | 1.53 | 1.02 | – | – | – | – | –
3 | A-427 | 1.1 | 1.06 | 1.08 | 1.15 | 1.15 | 0.542 | – | 0.554 | 0.569 | 0.51 | 0.995 | 0.912 | 0.999 | 1.02 | 0.966 | 0.831 | – | 0.755 | 0.818 | 0.747
4 | ABC-1 | 0.79 | 0.797 | 0.946 | 1.19 | 1.04 | 0.775 | 0.638 | 0.549 | 0.643 | 0.899 | – | – | – | – | – | – | – | – | – | –
5 | BEN | 1.03 | 0.895 | 0.83 | 0.848 | 0.911 | 0.464 | 0.482 | 0.48 | 0.524 | 0.497 | 0.0589 | 0.0559 | 0.0723 | 0.0658 | 0.0687 | 1.14 | 1.06 | 1.09 | 0.998 | 1.15
6 | CAL-12T | 0.967 | 0.7 | 0.768 | 0.869 | 0.846 | 0.423 | 0.344 | 0.411 | 0.457 | 0.41 | 1.48 | 1.19 | 1.22 | 1.48 | 1.26 | 0.466 | 0.345 | 0.372 | 0.347 | 0.294
7 | COR-L23 | 1.06 | 1.02 | 0.884 | 1.15 | 0.88 | 0.245 | 0.319 | 0.299 | 0.306 | 0.266 | 1.06 | 1.07 | 0.922 | 1.12 | 1.04 | 0.58 | 0.53 | 0.418 | 0.606 | 0.552
8 | COR-L 105 | 0.873 | 1.09 | 0.748 | 1.22 | 0.92 | 0.435 | 0.467 | 0.436 | 0.379 | 0.417 | 0.766 | 0.778 | 0.713 | 0.975 | 0.884 | 0.442 | 0.407 | 0.491 | 0.416 | 0.547
9 | Calu-6 | 1.01 | 0.813 | 0.873 | 1.03 | 0.936 | – | – | – | – | – | 1.02 | 0.781 | 0.826 | 0.941 | 0.838 | – | – | – | – | –
10 | ChaGo-K-1 | – | – | – | – | – | 0.955 | 0.941 | 0.913 | 0.821 | 0.986 | 0.674 | 0.917 | 1 | 0.844 | 1 | 0.877 | 0.895 | 0.868 | 0.916 | 0.846
11 | EBC-1 | 0.946 | 0.832 | 0.85 | 0.978 | 0.996 | – | – | – | – | – | 0.504 | 0.395 | 0.467 | 0.566 | 0.571 | – | – | – | – | –
12 | EKVX | 1.05 | 1.1 | 0.954 | 1.12 | 1.01 | 0.447 | 0.338 | 0.39 | 0.393 | 0.322 | 1.01 | 0.898 | 0.881 | 1.11 | 0.899 | 0.365 | 0.405 | 0.348 | 0.332 | 0.413
13 | EMC-BAC-2 | 0.826 | 0.874 | 0.805 | 0.821 | 0.808 | 0.525 | – | 0.551 | 0.486 | 0.51 | 1.22 | 1.21 | 1.09 | 1.36 | 1.16 | 0.905 | – | 0.893 | 0.937 | 0.799
14 | EPLC-272H | – | 1.19 | 0.982 | 1.18 | 1.06 | 0.336 | 0.299 | 0.305 | 0.339 | 0.313 | – | 1.25 | 0.988 | 1.17 | 1.08 | 0.307 | 0.299 | 0.283 | 0.326 | 0.277
15 | H3255 | 0.923 | 0.872 | 0.92 | 0.938 | 1.04 | 0.303 | 0.309 | 0.325 | 0.301 | 0.315 | 0.607 | 0.419 | 0.421 | 0.501 | 0.492 | 0.646 | 0.612 | 0.639 | 0.754 | 0.627
16 | HARA | 0.914 | 0.886 | 0.983 | 0.975 | 0.926 | 0.298 | 0.219 | 0.272 | 0.242 | 0.294 | 1.13 | 1.16 | 1.16 | 1.18 | 1.16 | 0.795 | 0.955 | 0.774 | 0.723 | 0.628
17 | HCC-15 | 0.832 | 0.919 | 0.889 | 0.926 | 0.861 | 0.721 | 0.702 | 0.755 | 0.526 | 0.66 | 0.694 | 0.673 | 0.677 | 0.784 | 0.729 | 0.4 | 0.394 | 0.379 | 0.402 | 0.38
18 | HCC-44 | 0.674 | 0.67 | 0.638 | 0.673 | 0.629 | 1.02 | 0.897 | 0.939 | 0.994 | 0.921 | 0.951 | 0.998 | 0.961 | 0.987 | 0.94 | 1.05 | 1.1 | 1.03 | 1.11 | 0.945
